In article PMC6848912 (British Journal of Clinical Pharmacology, 2019):

Columns and labels:
[1] = in combination with carboplatin + paclitaxel; cited from earlier work
[2] = Population pharmacokinetic analysis; format: in vivo
[3] = cited from earlier work
[4] = Inc. data on file, cited from earlier work
[5] = concurrent administration of carboplatin + paclitaxel
[6] = nonparametric bootstrap of final PPK model

For NS(=O)(=O)OC[C@@H]1C[C@@H](n2ccc3c(N[C@H]4CCc5ccccc54)ncnc32)C[C@@H]1O [pevonedistat, Pevonedistat], the “maximum tolerated dose (MTD) / recommended Phase II dose” value [1] is listed as 20 mg/m^2, the “average increase in pevonedistat exposure (AUC)” value [2, 5] is listed as 79% and the “average increase in pevonedistat exposure (AUC), fold” value [2, 5] is listed as 1.79 fold. The “impact of race, sex, age, tumour type, mild or moderate renal impairment (CrCL ≥30 mL/min), mild hepatic impairment on pevonedistat PK” value ([2]; covariate analysis) was “had no impact on pevonedistat PK”, the “IIV_CL (interindividual variability), typical value” ([2]; final PPK model) was 36.6 %CV and the “IIV_Q, typical value” ([2]; final PPK model) was 60.5 %CV. The “IIV_Vc, typical value” ([2]; final PPK model) was 36.6 %CV, the “IIV_Vp, typical value” ([2]; final PPK model) was 36.9 %CV and the “Albumin on Q (exponent), typical value” ([2]; final PPK model, (ALB/40)^θ13) was 1.45. The “BSA on Q (exponent), typical value” ([2]; final PPK model, set the same as BSA on CL) was 1.33, the “BSA on Vp (exponent), typical value” ([2]; final PPK model, set the same as BSA on Vc) was 1.39 and the “BSA on Vc (exponent), typical value” ([2]; final PPK model, set the same as BSA on Vp) was 1.39. For the same compound, the Vd ([2]; human, plasma, intravenous) was 117 L, the “Albumin on Q, bootstrap median” value [2, 6] was 1.45 and the “BSA on Q, bootstrap median” value [2, 6] was 1.33. The “BSA on Vc, bootstrap median” value [2, 6] was 1.39, the “BSA on Vp, bootstrap median” value [2, 6] was 1.39 and the “IIV_CL, bootstrap median” value [2, 6] was 35.9 %CV. For the same compound, the “IIV_Q, bootstrap median” value [2, 6] was 60.2 %CV, the “IIV_Vc, bootstrap median” value [2, 6] was 36.6 %CV and the “IIV_Vp, bootstrap median” value [2, 6] was 36.7 %CV. For the same compound, the “Q, bootstrap median” value [2, 6] was 22 L/h, the “Vc, bootstrap median” value [2, 6] was 115 L and the “Vp, bootstrap median” value [2, 6] was 121 L. The “dose linearity of PK (AUC from time 0 to 24 hours vs dose)” value ([3]; dose from 25 to 278 mg/m^2) was “linear”, the drug accumulation ([3]; once-daily dosing for 5 consecutive days or intermittent dosing) was “little or no notable drug accumulation” and the “renal clearance contribution to total systemic clearance” value ([4]; ref Millennium Pharmaceuticals) was < 5%. The “renal elimination pathway, share of total plasma clearance” value ([4]; ref Takeda Millennium Pharmaceuticals) was 2.5%.
